The subject of data set [1] is HCVcc-1a/2a-Rluc. It counts as cell-based, hepatitis C virus. Conditions: mean of 8 independent experiments.
Data set [2] relates to HCVcc-1b/2a. The data set is classed as cell-based, hepatitis C virus.
A short description of data set [3]: in vitro. Conditions: human.
Experimental: (§1) In addition, compound-induced cytotoxicity in each cell line used for the infection assays was measured.
Data set [4] in a line: in vitro. Conditions: bovine.
Experimental: as §1
For data set [5], the system named is HCVpp-1b. Description: Inhibitor time-of-addition / attachment vs post-attachment assay, Huh-H1 cells.
Experimental: Huh-H1 cells were seeded at 5×10^3 cells/well in 96-well plates. The following day the plates were chilled to 4°C and the media was removed and replaced with HCVpp inoculum in a volume of 50 µl. Plates were incubated at 4°C for 1.5 hr on a rocking platform. The inoculum was removed and unbound virus was removed by 2 washes with 4°C media. Fresh media was added and the plates were shifted to a 37°C incubator. […] At 3 days post infection, firefly luciferase activity was quantified using the Steady-Glo Reagent (Promega) according to the manufacturer's instructions. Experiments were done in triplicate and the mean % inhibition was calculated relative to control infections lacking inhibitor.
Data set [6] is classed as cell-based. The conditions noted are these: human, Huh-7.5 cells.
Data set [7] deals with HCVcc-1a/2a. The conditions noted are these: 0.5 µM EI-1 in agarose overlay.
Experimental: An assay incorporating a semisolid medium was used to access cell-to-cell spread as described [57]. HCVcc-1a/c2a was added to 1.6×10^4 Huh-7.5 cells at 0.001 ffu/cell incubated at 37°C. […] Cells were incubated at 37°C for 2, 3 or 4 days at which time the agarose was removed and the infected cells were detected using indirect immunofluorescence for the HCV core protein as described above. The mean number of infected cells/ffu was determined from ≥100 foci for each data point.
Data set [8] has as its system HIV. Description: microbe, parasite or virus in culture. Conditions: Human immunodeficiency virus 1, MT2, read-out: EC50 HIV.
Experimental: (§2) BVDV cell protection assays were performed essentially as described [54] by infecting MDBK cells with 0.1 pfu/cell of BVDV strain NADL. Infected cells were incubated at 37°C for 3 days and virus-induced cytopathicity was measured using the Cell Titer-Glo reagent (Promega). HIV assays were performed as described [55] by infecting MT2 cells with 0.05 pfu/cell of the NL4-3 strain of HIV (NIH Research and Reference Reagent Program) containing the Renilla luciferase gene (NL-Rluc) in the Nef locus. Infected cells were incubated at 37°C for 5 days and virus replication was measured by reverse transcriptase assay using a scintillation proximity assay as described [55].
For data set [9], the system named is HCVcc-2a/2a-Rluc. It counts as cell-based.
The nature of data set [10]: in vitro. The conditions noted are these: dog.
Experimental: as §1
Data set [11] has as its system VSVpp. Description: microbe, parasite or virus in culture. It counts as cell-based. Conditions: Vesicular stomatitis virus, Huh-H1, read-out: EC50 VSVpp.
Data set [12] relates to BVDV. Description: microbe, parasite or virus in culture. The conditions noted are these: Bovine viral diarrhea virus isolates and strains, read-out: EC50 BVDV.
Experimental: as §2
The subject of data set [13] is HCV entry. It counts as cell-based, hepatitis C virus.

Read-outs that look alike come from different tables or passages of the source.

In data set [1], `C=C[C@@H]1C[C@]1(NC(=O)[C@@H]1C[C@@H](Oc2nccc3cc(OC)ccc23)CN1C(=O)[C@@H](NC(=O)OC(C)(C)C)C(C)(C)C)C(=O)NS(=O)(=O)C1CC1` [BMS-605339] yielded an EC50 of 0.123 µM.

Regarding `COC(=O)N[C@H](C(=O)N1CCC[C@H]1c1nc(-c2ccc(-c3ccc(-c4c[nH]c([C@@H]5CCCN5C(=O)[C@@H](NC(=O)OC)C(C)C)n4)cc3)cc2)c[nH]1)C(C)C` [BMS-790052, reference compound], in data set [2], the “virus release, inhibitor added 5 hours post infection (post entry; in words)” value is on record as “prevented virus release”.

With `CCCCCNc1nc(Nc2ccc([N+](=O)[O-])cc2)nc(OCC(F)(F)F)n1` [EI-1, N ^2-(4-nitrophenyl)-N ^4-pentyl-6-(2,2,2-trifluoroethoxy)-1,3,5-triazine-2,4-diamine], the CC50 in data set [3], in [4], in data set [6] and in data set [10] was greater than 50 µM in each case. Besides, the “effect on the attachment of HCVpp to HSPGs (inhibitor during 4°C step only; in words)” value in data set [5] (0.125 µM EI-1) is “little effect”. In addition, in [5] (0.125 µM EI-1 added at intervals after 37°C shift), the “time of infection within which inhibition is exerted” value is no more than 3 h. The inhibition at 0.125 µM in [5] (Hepatitis C virus, Huh-H1, read-out: inhibition when inhibitor present during the 37°C phase only (post-attachment)) was greater than 90%. In addition, the “progeny virus release, inhibitor present during entry (in words)” value in data set [2] was “dose-dependent reduction”. For the same compound, the “virus release, inhibitor added 5 hours post infection (post entry; in words)” value in [2] is recorded as “did not affect the levels of virion particles or infectious virus produced”. Also, the “cell-to-cell transmission (in words)” value in [7] was “abrogated”. Moreover, the EC50 is 23.4 µM in [8], 33 µM in [11] and greater than 50 µM in data set [12]. Also, the “activity against genotype 2a/2a chimeric virus (in words)” value in data set [9] is on record as “not active”.

Consider `CO/C1=C\C(C)=C\[C@@H](C)[C@@H](O)[C@@H](C)C/C(C)=C/C=C/[C@H](OC)[C@@H]([C@@H](C)[C@@H](O)[C@H](C)[C@@]2(O)C[C@@H](O)[C@H](C)[C@@H](C(C)C)O2)OC1=O` [bafilomycin, bafilomycin A1, reference compound], for which the “time after the 37°C temperature shift at which sensitivity to the inhibitor was lost” value in [5] (10 nM bafilomycin A1) was no less than 3 h. Further, the “stage of entry at which the control inhibitor is effective (in words)” value in data set [5] (heparin 200 µg/ml, anti-CD81 monoclonal antibody 2 µg/ml, bafilomycin A1 10 nM) is given as “only effective during the post-attachment stage”.

In the case of `CCCCCCCCO[C@@H]1O[C@H](CO)[C@@H](O)[C@H](O)[C@H]1O` [β-OG, n-octyl-β-D-glucoside], in data set [13], the “inhibition of HCV entry (in words)” value was “did not inhibit”.
